In this assay the test system is Human epidermal keratinocytes. In words: in vitro scratch-wound assay (keratinocyte migration). It is filed as cell-based. Conditions: primary human epidermal keratinocytes, 24 h pre-culture with active, 24 h further culture, wound area ratio divided by control (control = 1), active level wt % of medium. As for the experimental part:
The migration of epidermal keratinocytes is the basis for skin re-epithelialization during wound healing. The in vitro scratch-wound assay using monolayers of primary human epidermal keratinocytes is a straightforward and effective method to assess the migratory capacity. Human epidermal keratinocytes (lot.: Ep21012001, Biocell) were seeded into 6-well plates, at 4.5×10^5 cells per well and maintained in a 37° C. incubator in an atmosphere of 5% of carbon dioxide in EpiLife™ Keratinocyte Medium until the cells reaching 70 to 80% of confluence in the well. Then, the cells were cultured by fresh medium (as control) or fresh medium supplemented with different actives for 24 hours. The cells were scratched by a […] of pipette tip in an identical manner to simulate the formation of wound, and images for the cells were taken immediately to record the wound. The cells were cultured again by identical fresh medium or fresh medium supplemented with different actives at 37° C. for 24 hours and images for the cells were taken again. The ratio of area before and after the further culture were obtained by using the software Image-pro plus. The relative migration rates for difference actives were calculated by dividing the values of control and were summarized in Table 1.
For `NC(=O)c1cccnc1` [A, Niacinamide], the Relative migration rate was 0.94.
Lysine carboxymethyl cysteinate: the Relative migration rate came out at 1.15.
The value for `NC(=O)c1cccnc1` [B, Niacinamide] was 1.19; that for `NC(=O)c1cccnc1` [C, Niacinamide] was 1.08.
The value for Lysine carboxymethyl cysteinate [D] was 1.04.
